The nature of experiment [1]: NIH3T3 cell viability loss – ATP luminescence, mouse fibroblasts, counter-screen, dose response (AID 2010).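 Also: cells exposed to compound for about 90 hours before reading.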 It is filed as functional, cell-based.
Experiment [2] is described as follows: ATP-based viability loss in HeLa cells – cell-based, CellTiter-Glo luminescence, dry powder, set 2, cytotoxicity control, dose response (AID 720593). It is filed as functional. Background: ATP-based viability assays read luminescence as a measure of living cells.
Experiment [3] addresses ATP-dependent molecular chaperone HSP82 (Candida albicans (strain WO-1) (Yeast), UniProt C4YTQ8). Briefly: steroid-induced GRE reporter decrease in yeast – S. cerevisiae, luminescence, Hsp90 inhibitor project, dose response (AID 2400).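 Also: beta-galactosidase luminescence from glucocorticoid response element reporter as proxy for Hsp90 function; inhibitor potency where signal loss means Hsp90 inhibition.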 It is filed as functional, cell-based.
The nature of the next experiment: cells. Type of experiment: functional, cell-based.
The target of experiment [4] is Protein-tyrosine kinase 2-beta (Homo sapiens, UniProt Q14289).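 Also: potency of inhibitors of PYK2 kinase phosphorylation of poly-GT substrate.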
Protein-tyrosine kinase 2-beta, sequence (Q14289 whole entry): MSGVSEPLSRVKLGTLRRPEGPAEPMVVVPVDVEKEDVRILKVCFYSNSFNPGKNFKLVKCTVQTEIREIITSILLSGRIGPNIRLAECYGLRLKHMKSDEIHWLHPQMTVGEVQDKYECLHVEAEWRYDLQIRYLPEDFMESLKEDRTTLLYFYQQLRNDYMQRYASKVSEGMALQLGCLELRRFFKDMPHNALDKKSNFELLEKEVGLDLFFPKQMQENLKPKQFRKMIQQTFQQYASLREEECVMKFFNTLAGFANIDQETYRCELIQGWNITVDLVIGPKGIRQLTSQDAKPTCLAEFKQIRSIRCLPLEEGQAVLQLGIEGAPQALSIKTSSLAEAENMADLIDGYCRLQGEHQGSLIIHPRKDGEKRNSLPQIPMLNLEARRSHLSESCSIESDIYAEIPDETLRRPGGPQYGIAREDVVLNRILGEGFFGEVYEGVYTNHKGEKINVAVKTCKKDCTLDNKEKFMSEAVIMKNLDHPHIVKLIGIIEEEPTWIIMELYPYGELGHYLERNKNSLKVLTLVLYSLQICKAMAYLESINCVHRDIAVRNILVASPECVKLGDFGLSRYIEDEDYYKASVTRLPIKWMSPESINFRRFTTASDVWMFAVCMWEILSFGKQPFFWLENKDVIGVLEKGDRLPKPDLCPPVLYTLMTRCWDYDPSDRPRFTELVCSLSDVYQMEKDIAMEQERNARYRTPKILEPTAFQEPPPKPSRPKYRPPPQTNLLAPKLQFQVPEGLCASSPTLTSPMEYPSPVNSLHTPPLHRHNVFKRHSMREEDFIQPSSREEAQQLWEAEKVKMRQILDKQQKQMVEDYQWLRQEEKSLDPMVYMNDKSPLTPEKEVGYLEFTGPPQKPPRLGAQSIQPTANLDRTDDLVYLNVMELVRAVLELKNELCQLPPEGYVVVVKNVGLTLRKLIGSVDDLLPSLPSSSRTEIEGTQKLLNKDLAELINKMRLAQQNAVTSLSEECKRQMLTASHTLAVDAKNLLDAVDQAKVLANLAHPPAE
Another experiment has as its target T1, Bcl-2-like protein 10 (Homo sapiens, UniProt Q9HD36).
T1 sequence (Q9HD36 whole entry): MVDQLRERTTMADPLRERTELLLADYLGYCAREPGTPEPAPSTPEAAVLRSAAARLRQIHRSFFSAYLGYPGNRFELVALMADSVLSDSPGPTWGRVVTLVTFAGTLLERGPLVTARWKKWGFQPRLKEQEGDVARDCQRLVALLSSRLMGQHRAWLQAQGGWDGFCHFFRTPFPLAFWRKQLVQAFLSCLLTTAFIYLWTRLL
Briefly: Bcl-B/TR3 peptide binding disruption – biochemical, fluorescence polarization, FITC-TR3 peptide, selectivity assay for Bfl-1 inhibitor project, primary screen (AID 748).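 Also: fluorescence polarization from a fluorescein-labelled TR3 peptide binding purified Bcl-B.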 A general note: Polarisation of emitted light reports the rotation of a fluorescent probe.

A short description of experiment [5]: IC50 of Artemis nuclease activity blockers – biochemical, fluorescence intensity, dose response (AID 720701).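 Also: Artemis endonuclease enzyme.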 It is filed as functional.
The test system of another experiment is HEK293. The experiment can be described thus: optical interference in Abeta FP readout, dose response, artefact control for IDE activator project, biochemical, fluorescence polarization (AID 588442). It is filed as functional, cell-based. To be noted: Homo sapiens.
Experiment [6] deals with BJ. The experiment can be described thus: BJ-TERT-LT-ST fibroblast viability loss – cell-based, RAS-independent, luminescence, dose response (AID 1935).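 Also: BJ fibroblasts immortalized with TERT plus LT and ST oncogenes.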 Type of experiment: functional. To be noted: Homo sapiens.
Experiment [7] in a line: activation of miR-122 Renilla sensor silencing – cell-based, Huh7 psiCHECK-miR122, Renilla luciferase, cherry-picked, dose response (AID 651956).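 Also: huh7 hepatoma cells stably carrying a psiCHECK-2 miR-122 sensor plasmid; renilla luciferase signal reporting endogenous miR-122 activity after 48 h compound exposure.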 It is filed as functional.
The subject of experiment [8] is BJ. Briefly: BJ-TERT fibroblast viability loss – cell-based, RAS-independent, luminescence, dose response (AID 1933). It is filed as functional. To be noted: Homo sapiens.
The next experiment addresses CAAX prenyl protease 2 (Saccharomyces cerevisiae S288c, UniProt Q03530). It is filed as biochemical.
For experiment [9], the target named is T2, DNA repair protein RAD52 homolog (Homo sapiens, UniProt P43351).
T2 sequence (P43351 whole entry): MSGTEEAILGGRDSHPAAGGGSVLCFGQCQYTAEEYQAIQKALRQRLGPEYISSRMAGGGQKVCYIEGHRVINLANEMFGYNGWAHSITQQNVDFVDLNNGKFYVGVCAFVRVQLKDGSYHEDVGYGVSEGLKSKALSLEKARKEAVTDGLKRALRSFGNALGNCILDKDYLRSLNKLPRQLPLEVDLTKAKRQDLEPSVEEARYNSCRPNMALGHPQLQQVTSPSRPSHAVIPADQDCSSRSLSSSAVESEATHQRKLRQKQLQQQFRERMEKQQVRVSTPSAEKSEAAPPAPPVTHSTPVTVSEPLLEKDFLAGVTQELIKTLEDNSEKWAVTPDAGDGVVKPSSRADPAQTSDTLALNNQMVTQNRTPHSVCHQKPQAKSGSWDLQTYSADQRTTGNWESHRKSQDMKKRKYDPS
It is filed as functional, biochemical.

The target of experiment [10] is Serine/threonine-protein kinase 17A (Homo sapiens, UniProt Q9UEE5). It is filed as functional.
Serine/threonine-protein kinase 17A, sequence (Q9UEE5 whole entry): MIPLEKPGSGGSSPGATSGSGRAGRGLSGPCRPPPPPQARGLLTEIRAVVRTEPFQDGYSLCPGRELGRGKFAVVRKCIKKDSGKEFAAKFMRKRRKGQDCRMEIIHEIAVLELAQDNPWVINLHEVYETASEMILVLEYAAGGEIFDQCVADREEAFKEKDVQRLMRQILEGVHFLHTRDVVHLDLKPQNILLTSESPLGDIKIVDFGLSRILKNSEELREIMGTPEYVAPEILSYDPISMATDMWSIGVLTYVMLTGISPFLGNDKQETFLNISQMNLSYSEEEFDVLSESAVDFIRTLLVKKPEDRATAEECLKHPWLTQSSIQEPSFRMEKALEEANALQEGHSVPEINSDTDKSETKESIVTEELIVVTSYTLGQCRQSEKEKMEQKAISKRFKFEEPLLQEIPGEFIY
Experiment [11] concerns the target Cell division cycle 7-related protein kinase (Homo sapiens, UniProt O00311). It is filed as functional.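 Also: value obtained from a kinome-wide kinase panel.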
Experiment [12] deals with Cyclin-dependent kinase 9 (Homo sapiens, UniProt P50750). It is filed as functional.
Cyclin-dependent kinase 9, sequence (P50750 whole entry): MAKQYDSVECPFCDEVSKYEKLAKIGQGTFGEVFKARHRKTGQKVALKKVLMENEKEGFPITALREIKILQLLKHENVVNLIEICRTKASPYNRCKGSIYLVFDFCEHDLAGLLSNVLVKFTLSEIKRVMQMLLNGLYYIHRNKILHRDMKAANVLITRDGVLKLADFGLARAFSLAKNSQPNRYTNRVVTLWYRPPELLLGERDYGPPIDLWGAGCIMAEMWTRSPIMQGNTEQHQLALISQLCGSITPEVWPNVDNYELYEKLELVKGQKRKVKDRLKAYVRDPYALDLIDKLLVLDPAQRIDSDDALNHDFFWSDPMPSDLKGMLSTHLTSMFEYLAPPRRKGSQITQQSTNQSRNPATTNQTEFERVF
Experiment [13] has as its target Serine/threonine-protein kinase Nek2 (Homo sapiens, UniProt P51955). Type of experiment: functional.
Experiment [14] addresses T3, Histone-lysine N-methyltransferase NSD2 (Homo sapiens, UniProt O96028).
T3 sequence (O96028 whole entry): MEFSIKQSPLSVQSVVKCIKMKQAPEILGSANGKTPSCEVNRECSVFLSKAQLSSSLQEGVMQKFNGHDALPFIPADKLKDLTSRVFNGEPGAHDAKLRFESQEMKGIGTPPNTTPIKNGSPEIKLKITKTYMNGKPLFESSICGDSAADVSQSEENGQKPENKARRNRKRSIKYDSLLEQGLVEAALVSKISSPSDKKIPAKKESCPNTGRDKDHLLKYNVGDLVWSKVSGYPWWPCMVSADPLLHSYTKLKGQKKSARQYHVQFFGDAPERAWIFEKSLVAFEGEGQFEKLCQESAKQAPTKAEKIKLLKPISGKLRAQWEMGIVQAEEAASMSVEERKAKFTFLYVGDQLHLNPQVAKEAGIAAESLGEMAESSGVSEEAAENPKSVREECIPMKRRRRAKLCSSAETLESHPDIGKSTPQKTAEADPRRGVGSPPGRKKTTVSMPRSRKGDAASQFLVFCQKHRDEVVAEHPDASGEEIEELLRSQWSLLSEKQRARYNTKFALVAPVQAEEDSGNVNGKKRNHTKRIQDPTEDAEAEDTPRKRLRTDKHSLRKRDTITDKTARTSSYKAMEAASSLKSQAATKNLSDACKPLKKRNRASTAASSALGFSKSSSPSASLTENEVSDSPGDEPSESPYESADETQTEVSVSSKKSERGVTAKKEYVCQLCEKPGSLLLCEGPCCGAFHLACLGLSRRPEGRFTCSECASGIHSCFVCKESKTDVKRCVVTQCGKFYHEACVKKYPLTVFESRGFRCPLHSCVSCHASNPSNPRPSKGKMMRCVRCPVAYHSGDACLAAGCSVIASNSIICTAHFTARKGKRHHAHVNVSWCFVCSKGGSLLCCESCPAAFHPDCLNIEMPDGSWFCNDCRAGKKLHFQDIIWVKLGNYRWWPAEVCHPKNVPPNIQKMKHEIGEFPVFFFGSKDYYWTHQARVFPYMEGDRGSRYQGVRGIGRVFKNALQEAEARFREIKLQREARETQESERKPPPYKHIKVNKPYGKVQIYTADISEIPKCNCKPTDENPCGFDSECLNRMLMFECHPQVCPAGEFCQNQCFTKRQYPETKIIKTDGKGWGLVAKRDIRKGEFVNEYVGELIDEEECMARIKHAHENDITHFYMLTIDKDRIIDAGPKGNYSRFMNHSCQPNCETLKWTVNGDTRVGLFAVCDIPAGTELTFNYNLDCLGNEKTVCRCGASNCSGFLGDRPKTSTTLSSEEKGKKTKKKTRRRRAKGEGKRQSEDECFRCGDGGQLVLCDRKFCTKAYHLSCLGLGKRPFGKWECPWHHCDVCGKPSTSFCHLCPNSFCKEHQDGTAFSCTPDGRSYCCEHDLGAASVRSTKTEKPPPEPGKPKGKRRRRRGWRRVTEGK
Type of experiment: biochemical.

Experimental findings from ChEMBL document CHEMBL1201862, “PubChem BioAssay data set” (2004) are described below.

Structures are written as SMILES. The source made the active and inactive calls.

Cell division cycle 7-related protein kinase, sequence (O00311 whole entry): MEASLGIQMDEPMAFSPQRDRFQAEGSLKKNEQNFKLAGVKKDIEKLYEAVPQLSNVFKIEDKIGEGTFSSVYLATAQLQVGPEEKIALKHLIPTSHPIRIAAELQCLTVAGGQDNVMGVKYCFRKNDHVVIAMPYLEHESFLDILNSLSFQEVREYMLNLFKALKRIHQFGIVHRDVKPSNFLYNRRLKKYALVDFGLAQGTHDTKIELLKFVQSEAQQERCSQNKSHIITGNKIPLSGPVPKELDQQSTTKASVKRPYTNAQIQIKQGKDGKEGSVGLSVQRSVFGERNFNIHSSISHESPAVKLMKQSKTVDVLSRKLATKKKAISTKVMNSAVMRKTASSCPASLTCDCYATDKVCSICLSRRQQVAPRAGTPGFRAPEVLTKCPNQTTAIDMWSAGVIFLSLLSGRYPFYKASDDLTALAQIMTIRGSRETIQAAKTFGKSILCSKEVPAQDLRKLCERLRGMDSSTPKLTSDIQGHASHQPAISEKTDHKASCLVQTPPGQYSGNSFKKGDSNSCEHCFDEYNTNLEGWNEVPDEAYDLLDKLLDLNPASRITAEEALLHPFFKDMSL
ATP-dependent molecular chaperone HSP82, sequence (C4YTQ8 whole entry): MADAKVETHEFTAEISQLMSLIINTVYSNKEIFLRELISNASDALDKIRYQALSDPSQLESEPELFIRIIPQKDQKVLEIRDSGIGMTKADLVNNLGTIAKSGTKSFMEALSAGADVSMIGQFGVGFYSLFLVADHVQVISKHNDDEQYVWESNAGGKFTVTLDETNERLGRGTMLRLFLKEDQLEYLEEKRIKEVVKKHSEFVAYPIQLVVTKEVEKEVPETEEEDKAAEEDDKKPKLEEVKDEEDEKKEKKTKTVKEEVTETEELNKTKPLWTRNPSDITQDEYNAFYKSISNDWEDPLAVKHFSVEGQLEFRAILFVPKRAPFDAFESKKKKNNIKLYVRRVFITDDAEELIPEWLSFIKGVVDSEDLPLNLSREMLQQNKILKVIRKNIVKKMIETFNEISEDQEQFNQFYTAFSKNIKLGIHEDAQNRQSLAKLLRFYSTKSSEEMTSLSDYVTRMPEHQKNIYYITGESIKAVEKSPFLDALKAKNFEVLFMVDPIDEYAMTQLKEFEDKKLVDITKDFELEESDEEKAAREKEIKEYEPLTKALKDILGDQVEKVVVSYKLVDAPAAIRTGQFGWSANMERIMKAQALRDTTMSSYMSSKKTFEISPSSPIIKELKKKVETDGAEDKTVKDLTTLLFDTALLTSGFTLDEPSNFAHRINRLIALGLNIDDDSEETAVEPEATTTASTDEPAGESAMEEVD
Serine/threonine-protein kinase Nek2, sequence (P51955 whole entry): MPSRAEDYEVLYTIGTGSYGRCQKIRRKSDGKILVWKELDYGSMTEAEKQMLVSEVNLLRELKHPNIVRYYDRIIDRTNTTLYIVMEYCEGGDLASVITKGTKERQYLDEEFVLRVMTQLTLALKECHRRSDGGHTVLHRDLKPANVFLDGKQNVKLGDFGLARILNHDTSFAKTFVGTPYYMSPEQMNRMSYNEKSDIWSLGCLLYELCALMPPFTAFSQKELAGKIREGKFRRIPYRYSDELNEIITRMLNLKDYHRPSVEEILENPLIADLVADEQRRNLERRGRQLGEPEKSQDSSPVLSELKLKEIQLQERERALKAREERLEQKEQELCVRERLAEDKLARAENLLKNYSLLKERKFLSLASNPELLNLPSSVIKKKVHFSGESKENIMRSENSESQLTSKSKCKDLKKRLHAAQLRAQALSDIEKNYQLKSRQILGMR
CAAX prenyl protease 2, sequence (Q03530 whole entry): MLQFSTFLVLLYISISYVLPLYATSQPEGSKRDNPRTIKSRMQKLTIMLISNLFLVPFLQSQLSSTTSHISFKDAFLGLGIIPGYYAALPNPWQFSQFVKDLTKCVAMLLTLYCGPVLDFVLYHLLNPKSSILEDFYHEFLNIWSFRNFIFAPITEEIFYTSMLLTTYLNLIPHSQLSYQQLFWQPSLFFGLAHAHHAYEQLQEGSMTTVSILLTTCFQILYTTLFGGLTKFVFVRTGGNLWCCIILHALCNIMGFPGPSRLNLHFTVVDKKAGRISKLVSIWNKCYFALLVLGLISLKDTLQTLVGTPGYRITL

The EC50 is the concentration at which the effect is half-maximal. Broadly, the AC50 is the concentration giving half of the maximal activity seen. In the case of `CC(C)CC(=O)NC(c1cccs1)c1ccc2cccnc2c1O` (stereo not given), the EC50 in experiment [1] was 1.48 µM (active); in experiment [3], > 150 µM (inactive); in the experiment “cells” it was 6.65 µM (active). The AC50 in experiment [2] was 20.3 µM (active).

A word on the IC50: it is the midpoint of a concentration-inhibition curve. On to `CCOC(=O)c1ccc(NC2=CC(=O)C(=O)c3ccccc32)cc1`, for which the IC50 is > 69.5 µM (not active) in experiment [4], 60.7 µM (inactive) on Bcl-2-like protein 10 and 2.6 µM (active) in experiment [5].

`OC(CNCCC1C=Nc2ccccc21)Cn1c2ccc(Cl)cc2c2cc(Cl)ccc21` (stereo not given): the EC50 with HEK293 was > 56 µM (inactive); with BJ [6], 5.42 µM (inconclusive); in the experiment with BJ [8], 5.3 µM (inconclusive). Besides, the concentration at half-maximal activity (AC50) is 12.8 µM (active) in [7] and 8.21 µM (active) on CAAX prenyl protease 2.

As for `CCCCCCCCCCCCCCCC[N+](C)(C)C`, the AC50 in [9] was 8.73 µM (active).

One may read the Ki as a measure of affinity in units of concentration, obtained from inhibition or displacement. A word on the pKi: it is the negative decadic logarithm of the Ki, by convention in mol/L. Read a high pKi as a small Ki. For `NC1CCC(Nc2nc(Cl)cc(-c3c[nH]c4ncccc34)n2)CC1` (stereo not given), in [10], the Ki was 0.0316 µM (active) and the negative-log Ki (pKi) worked out at 7.5. Besides, in [11], the Ki is 0.000316 µM (active) and the pKi is reported as 9.5.

Consider `O=C(O)C1CN(Cc2ccc(OCc3ccccc3)cc2Cl)C1`, for which the Ki in experiment [12] was > 1.58 µM (inactive); in [13], > 3.16 µM (inactive).

With `COc1ccc(C(=O)c2nccc3cc(OC)c(OC)cc23)cc1OC`, in [14], the AC50 was 6.77 µM (active).
